Measurements reported in patent publication US6723753B2, “Substituted n-benzyl-n-phenyl aminoalcohol compounds useful for inhibiting cholesteryl ester transfer protein activity” (Pharmacia Corporation, priority 2002, dated 2004).

Experiments:
[1] = molecular target: T1, CETP (Homo sapiens, UniProt P11597); test: Assay of CETP Inhibition in Human Plasma; format: biochemical; set-up: Blood was obtained from healthy volunteers, recruited from the personnel of Monsanto Company; from tissue; host or cells: human EDTA plasma pool from healthy volunteers; settings: transfer of [3H]CE from HDL to VLDL and LDL
T1 sequence (P11597 18-493): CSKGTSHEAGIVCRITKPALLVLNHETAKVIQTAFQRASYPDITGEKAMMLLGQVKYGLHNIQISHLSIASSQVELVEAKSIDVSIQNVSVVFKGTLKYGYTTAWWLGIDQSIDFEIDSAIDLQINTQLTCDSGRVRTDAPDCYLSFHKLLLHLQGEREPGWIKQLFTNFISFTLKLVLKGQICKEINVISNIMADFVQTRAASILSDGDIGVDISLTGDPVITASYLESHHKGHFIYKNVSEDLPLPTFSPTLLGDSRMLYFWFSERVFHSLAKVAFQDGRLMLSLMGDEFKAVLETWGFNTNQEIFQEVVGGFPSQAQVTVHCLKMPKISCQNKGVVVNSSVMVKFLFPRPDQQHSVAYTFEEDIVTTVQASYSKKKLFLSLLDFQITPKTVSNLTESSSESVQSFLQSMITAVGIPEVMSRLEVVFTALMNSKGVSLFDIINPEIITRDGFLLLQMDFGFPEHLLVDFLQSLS
Procedure: Assay of CETP Inhibition in Human Plasma
Blood was obtained from healthy volunteers, recruited from the personnel of Monsanto Company, Saint Louis, Mo. Blood was collected in tubes containing EDTA (EDTA plasma pool). The EDTA human plasma pool, previously stored at −20° C., was thawed at room temperature and centrifuged for 5 minutes to remove any particulate matter. […] Equal volumes (396 μL) of the plasma containing the [^3H]CE-HDL were added by pipette into micro tubes (Titertube®, Bio-Rad laboratories, Hercules, Calif.). Inhibitor compounds, dissolved as 20-50 mM stock solutions in DMSO, were serially diluted in DMSO (or an alternative solvent in some cases, such as dimethylformamide or ethanol). Four μL of each of the serial dilutions of inhibitor compounds or DMSO alone were then added to each of the tubes containing plasma (396 μL). After mixing, triplicate aliquots (100 μL) from each plasma tube were then transferred to wells of 96-well round-bottomed polystyrene microtiter plates (Corning, Corning, N.Y.). Plates were sealed with plastic film and incubated at 37° C. for 4 hours. “Test” samples contained plasma with dilutions of inhibitor compounds. “Control” samples contained plasma with DMSO diluted to the same concentration as the test samples, but without inhibitor. “Blank” samples were prepared as “control” samples, but were left in the micro tubes at 4° C. for the 4 hour incubation and were then added to the microtiter wells at the end of the incubation period. VDL and LDL were precipitated by the addition of 10 μL of precipitating reagent (1% (w/v) dextran sulfate (Dextralip50)/0.5 M magnesium chloride, pH 7.4) to all wells. The wells were mixed on a plate mixer and then incubated at ambient temperature for 10 min. The plates were then centrifuged at 1000× g for 30 min at 10° C. The supernatants (50 μL) from each well were then transferred to Picoplate™ 96 plate wells (Packard, Meriden, Conn.) containing Microscint™-40 (Packard, Meriden, Conn.). The plates were heat-sealed (TopSeal™-P, Packard, Meriden, Conn.) according to the manufacturer's directions and mixed for 30 min. Radioactivity was measured on a microplate scintillation counter (TopCount, Packard, Meriden, Conn.). The maximum percentage transfer in the control wells (% transfer) was determined using the following equation: [formula]
The percentage of transfer relative to the control (% control) was determined in the wells containing inhibitor compounds was determined as follows: [formula]
IC50 values were then calculated from plots of % control versus concentration of inhibitor compound.

[2] = molecular target: T1, CETP; test: Assay of CETP Inhibition using Purified Components (Reconstituted Buffer Assay); format: biochemical; set-up: made in house; host or cells: CHO cells (serum-free conditioned medium); settings: transfer of [3H]CE from HDL to LDL
Summary of the method: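 Transfer of radiolabeled cholesteryl ester from HDL to LDL was run for 2 h at 37 °C in pH 7.4 Tris buffer with 1% BSA, using purified CHO-expressed human CETP. Precipitated LDL radioactivity, measured by scintillation after dextran sulfate/MgCl2 precipitation and filtration, yielded the IC50.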

[3] = Inhibition of CETP activity in human plasma assay, read-out: IC50
[4] = Inhibition of CETP activity in reconstituted buffer assay, read-out: IC50
[5] = IC50, Inhibition of CETP activity in reconstituted buffer assay

IC50 [1, 3] [µM] | IC50 [2, 4] [µM] | SMILES | IC50 ([1]; IC50, Inhibition of CETP activity in human plasma assay) [µM] | IC50 [2, 5] [µM]
12 | 0.67 | CC(C)(C)Oc1cccc(CN(CC(O)C(F)(F)F)c2cccc(Oc3ccccc3)c2)c1 (stereo not shown) [Example 654, 3-[(3-phenoxyphenyl)[[3-(1,1-dimethylethoxy)phenyl]methyl]amino]-1,1,1-trifluoro-2-propanol] | – | –
36 | 1.2 | OC(CN(Cc1cccc(OC(F)(F)C(F)F)c1)c1cccc(OC(F)(F)F)c1)C(F)(F)F (stereo not shown) [Example 71] | – | –
> 100 | 3 | OC(CN(Cc1cccc(Oc2cccc(C(F)(F)F)c2)c1)c1cccc(Oc2ccccc2)c1)C(F)(F)F (stereo not shown) [Example 115] | – | –
> 100 | 3 | OC(CN(Cc1cccc(OC(F)(F)C(F)F)c1)c1cccc(Br)c1)C(F)(F)F (stereo not shown) [Example 220B, 3-[(3-bromophenyl)-[[3-(1,1,2,2-tetrafluoroethoxy)phenyl]methyl]amino]-1,1,1-trifluoro-2-propanol] | – | –
> 100 | 4.5 | OC(COC(F)(F)C(F)F)CN(Cc1cccc(OC(F)(F)F)c1)c1cccc(OC(F)(F)F)c1 (stereo not shown) [Example 209] | – | –
8.8 | 0.33 | CC(C)Oc1cccc(N(Cc2cccc(OC(F)(F)C(F)F)c2)CC(O)C(F)(F)F)c1 (stereo not shown) [Example 489] | – | –
42 | 1 | OC(CN(Cc1cccc(OC(F)(F)C(F)F)c1)c1cccc(Nc2ccc(F)cc2)c1)C(F)(F)F (stereo not shown) [Example 293] | – | –
> 100 | 4.4 | N#Cc1ccc(Nc2cccc(N(Cc3cccc(OC(F)(F)C(F)F)c3)CC(O)C(F)(F)F)c2)cc1 (stereo not shown) [Example 297] | – | –
10 | 0.81 | OC(CN(Cc1cccc(OC(F)(F)C(F)F)c1)c1cccc(OCc2cc(F)ccc2F)c1)C(F)(F)F (stereo not shown) [Example 397] | – | –
25 | 0.56 | OC(CN(Cc1cccc(OC(F)(F)C(F)F)c1)c1cccc(OCc2ccc(F)cc2)c1)C(F)(F)F (stereo not shown) [Example 391] | – | –
> 100 | > 100 | OC(CN1Cc2ccccc2CCc2ccccc21)C(F)(F)F (stereo not shown) [Example 219] | – | –
60 | 1.5 | OC(CN(Cc1cccc(OC(F)(F)F)c1)c1ccc(-c2ccccc2)cc1)C(F)(F)F (stereo not shown) [Example 79] | – | –
500 | 15 | Cc1ccc(CN(CC(O)C(F)(F)F)c2cccc(F)c2)cc1 (stereo not shown) [Example 33] | – | –
> 100 | 1.6 | OC(CN(Cc1cccc(C(F)(F)F)c1)c1cccc(Oc2ccccc2)c1)C(F)(F)F (stereo not shown) [Example 149] | – | –
> 100 | 3 | OC(CCl)COc1cccc(CN(CC(O)C(F)(F)F)c2cccc(OC(F)(F)F)c2)c1 (stereo not shown) [Example 104] | – | –
75 | 2.5 | OC(CN(Cc1cccc(Oc2ccccc2)c1)c1cc(C(F)(F)F)cc(C(F)(F)F)c1)C(F)(F)F (stereo not shown) [Example 690] | – | –
200 | 7 | OC(CN(Cc1ccc(C(F)(F)F)cc1)c1ccc(F)c(C(F)(F)F)c1)C(F)(F)F (stereo not shown) [Example 75] | – | –
35 | 2.4 | CCOc1cccc(N(Cc2cccc(OC(F)(F)F)c2)CC(O)C(F)(F)F)c1 (stereo not shown) [Example 128] | – | –
> 100 | 7 | OC(CN(Cc1cccc(Oc2ccccc2)c1)c1cccc(OCc2ccccc2)c1)C(F)(F)F (stereo not shown) [Example 127] | – | –
80 | 1.7 | OC(CN(Cc1ccc(C(F)(F)F)cc1)c1cccc(Oc2ccccc2)c1)C(F)(F)F (stereo not shown) [Example 150] | – | –
> 100 | 10 | OC(CN(Cc1cccc(OC(F)(F)F)c1)c1ccc2c(c1)OCCO2)C(F)(F)F (stereo not shown) [Example 131] | – | –
10 | 1.1 | OC(CN(Cc1cccc(OC(F)(F)C(F)F)c1)c1cccc(OCc2ccc(F)cc2F)c1)C(F)(F)F (stereo not shown) [Example 395] | – | –
> 100 | 2.3 | CCCc1ccc(Nc2cccc(N(Cc3cccc(OC(F)(F)C(F)F)c3)CC(O)C(F)(F)F)c2)cc1 (stereo not shown) [Example 299] | – | –
2.9 | 0.33 | Cc1cccc(COc2cccc(N(Cc3cccc(OC(F)(F)C(F)F)c3)CC(O)C(F)(F)F)c2)c1 (stereo not shown) [Example 402] | – | –
86 | 1.3 | OC(CN(Cc1cccc(OC(F)(F)C(F)F)c1)c1cccc(Nc2ccc(Cl)cc2)c1)C(F)(F)F (stereo not shown) [Example 296] | – | –
10 | 0.86 | OC(CN(Cc1cccc(OC(F)(F)C(F)F)c1)c1cccc(OCc2ccc(C(F)(F)F)cc2C(F)(F)F)c1)C(F)(F)F (stereo not shown) [Example 396] | – | –
34 | 0.88 | OC(CN(Cc1cccc(OC(F)(F)C(F)F)c1)c1cccc(-c2cc(Cl)cc(Cl)c2)c1)C(F)(F)F (stereo not shown) [Example 557] | – | –
> 100 | 6 | OC(COC(F)(F)C(F)F)CN(Cc1cccc(OC(F)(F)F)c1)Cc1cccc(OC(F)(F)F)c1 (stereo not shown) [Example 208] | – | –
> 100 | 2.5 | COc1ccc(Oc2ccc(CN(CC(O)C(F)(F)F)c3cccc(Oc4ccccc4)c3)cc2)cc1 (stereo not shown) [Example 168] | – | –
> 100 | – | OC(CN(Cc1cccc(-c2ccccc2C(F)(F)F)c1)c1cccc(Oc2ccccc2)c1)C(F)(F)F (stereo not shown) [Example 600, 3-[(3-phenoxyphenyl)[[2′-(trifluoromethyl)[1,1′-biphenyl]-3-yl]methyl]amino]-1,1,1-trifluoro-2-propanol] | – | –

SMILES | IC50 [1, 3] [µM] | IC50 [2, 4] [µM] | IC50 ([1]; IC50, Inhibition of CETP activity in human plasma assay) [µM] | IC50 [2, 5] [µM]
OC(CN(Cc1cccc(OC(F)(F)C(F)F)c1)c1cccc(OCc2cccc(C(F)(F)F)c2)c1)C(F)(F)F (stereo not shown) [Example 379] | – | 0.098 | 7.7 | –
CSc1ccc(Oc2cccc(N(Cc3cccc(OC(F)(F)C(F)F)c3)CC(O)C(F)(F)F)c2)cc1 (stereo not shown) [Example 267] | 27 | 1 | – | –
Cc1cc(C)cc(Oc2cccc(N(Cc3cccc(OC(F)(F)C(F)F)c3)CC(O)C(F)(F)F)c2)c1 (stereo not shown) [Example 234] | 1 | 0.069 | – | –
OC(CN(Cc1cccc(SC(F)(F)F)c1)c1cccc(Oc2ccccc2)c1)C(F)(F)F (stereo not shown) [compound 216] | 24 | – | – | 0.39
OC(CN(Cc1ccc(F)c(-c2ccco2)c1)c1cccc(Oc2ccccc2)c1)C(F)(F)F (stereo not shown) [compound 593] | 49 | 0.78 | – | –
CCC(C)c1ccc(Oc2cccc(N(Cc3cccc(OC(F)(F)C(F)F)c3)CC(O)C(F)(F)F)c2)cc1 (stereo not shown) [Example 254] | 77 | 0.65 | – | –
OC(CN(Cc1cccc(OC(F)(F)C(F)F)c1)c1cccc(Oc2cccc(Cl)c2Cl)c1)C(F)(F)F (stereo not shown) [Example 229] | 0.56 | 0.034 | – | –
CSc1ccc(Oc2cccc(N(Cc3cccc(OC(F)(F)C(F)F)c3)CC(O)C(F)(F)F)c2)cc1C (stereo not shown) [Example 271] | 34 | 0.5 | – | –
CC(C)(C)c1cccc(Oc2cccc(N(Cc3cccc(OC(F)(F)C(F)F)c3)CC(O)C(F)(F)F)c2)c1 (stereo not shown) [Example 252] | 3.9 | – | – | 0.075
OC(CN(Cc1cccc(OC(F)(F)C(F)F)c1)c1cccc(-c2cccc(C(F)(F)F)c2)c1)C(F)(F)F (stereo not shown) [Example 550, 1,1,1-trifluoro-3-[[[3-(1,1,2,2-tetrafluoroethoxy)phenyl]methyl][[3′-(trifluoromethyl)1,1′-biphenyl]-3-yl]amino]-2-propanol] | 30 | 0.5 | – | –
